In patent US20050136444A1 (priority 2003, published 2005):
Structures can show the parent of a compound that is named as a salt.

Columns and labels:
NPFF1 = NPFF1 (Homo sapiens, UniProt Q9GZQ6); assay: Receptor Selection and Amplification Technology (R-SAT) functional assay, NPFF1; format: cell-based; parameters: expressed in transfected cells; host or cells: NIH3T3; settings: R-SAT, Table 1; for Emax: Efficacy is relative to endogenous ligand, read-out: NPFF1 % Efficacy; for EC50: NA = No activity detectable at the highest dose tested (20 μM), read-out: NPFF1 pEC50 (converted)
Experimental: (§1) Briefly, NIH3T3 cells were grown in 96 well tissue culture plates to 70-80% confluence. Cells were transfected for 16-20 h h with plasmid DNAs using Polyfect (Qiagen Inc.) as per manufacturer's protocols. R-SAT's were generally performed with 40 ng/well of receptor and 20 ng/well of β-galactosidase plasmid DNA. All receptor and G-protein constructs used were in the pSI-derived mammalian expression vector (Promega Inc) as described previously. […] For large-scale transfections, cells were transfected for 16-20 h, then trypsinized and frozen in DMSO. Frozen cells were later thawed, plated at ˜20,000 cells per well of a 96 half-area well plate that contained drug. With both methods, cells were then grown in a humidified atmosphere with 5% ambient CO2 for five days. Media was then removed from the plates and marker gene activity was measured by the addition of the β-galactosidase substrate o-nitrophenyl β-D-galactopyranoside (ONPG, in PBS with 0.5% NP-40). The resulting colorimetric reaction was measured in a spectrophotometric plate reader (Titertek Inc.) at 420 nm. All data were analyzed using the computer program XLFit (IDBSm).
(§2) R-SAT assay was conducted as set forth in […]

NPFF2 = molecular target: T1, NPFF2 (Homo sapiens, UniProt Q9Y5X5); assay: Receptor Selection and Amplification Technology (R-SAT) functional assay, NPFF2; format: cell-based; settings: R-SAT, Table 1; for Emax: Efficacy is relative to endogenous ligand, read-out: NPFF2 % Efficacy; for EC50: NA = No activity detectable at the highest dose tested (20 μM), read-out: NPFF2 pEC50 (converted)
T1 construct: expressed in transfected cells; host or cells: NIH3T3
Experimental: as §1, §2

NPFF1, sequence (Q9GZQ6 whole entry, species assumed): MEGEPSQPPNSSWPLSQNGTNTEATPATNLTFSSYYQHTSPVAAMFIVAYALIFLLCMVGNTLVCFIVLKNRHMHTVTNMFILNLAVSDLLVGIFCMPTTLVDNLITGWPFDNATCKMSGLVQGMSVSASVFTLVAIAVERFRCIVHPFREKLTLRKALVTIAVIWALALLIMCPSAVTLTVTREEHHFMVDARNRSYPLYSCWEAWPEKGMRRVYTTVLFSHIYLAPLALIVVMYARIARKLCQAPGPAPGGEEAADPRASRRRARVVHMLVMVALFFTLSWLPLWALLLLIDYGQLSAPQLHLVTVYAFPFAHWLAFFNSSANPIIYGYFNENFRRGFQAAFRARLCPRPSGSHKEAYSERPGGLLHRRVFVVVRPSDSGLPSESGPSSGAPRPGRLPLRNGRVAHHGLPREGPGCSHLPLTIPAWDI
T1 sequence (Q9Y5X5 103-522): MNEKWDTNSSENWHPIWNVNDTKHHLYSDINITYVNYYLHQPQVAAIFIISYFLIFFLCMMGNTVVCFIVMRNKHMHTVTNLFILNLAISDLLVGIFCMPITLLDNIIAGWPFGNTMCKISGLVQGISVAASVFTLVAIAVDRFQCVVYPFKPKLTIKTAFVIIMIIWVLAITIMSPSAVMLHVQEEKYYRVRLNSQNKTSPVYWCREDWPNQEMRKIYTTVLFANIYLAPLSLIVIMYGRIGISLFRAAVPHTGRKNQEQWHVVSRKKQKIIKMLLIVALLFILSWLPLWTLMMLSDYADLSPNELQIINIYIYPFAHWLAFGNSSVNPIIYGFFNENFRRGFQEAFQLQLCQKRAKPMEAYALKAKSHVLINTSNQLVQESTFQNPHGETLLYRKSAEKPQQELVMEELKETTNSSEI

Row | SMILES | Emax (NPFF1) [%] | EC50 (NPFF1) [nM] | Emax (NPFF2) [%] | EC50 (NPFF2) [nM]
1 | CCC(=NNC(=N)N)c1ccc(Cl)c(Cl)c1 [Compound 2056, 1-(3,4-Dichlorophenyl)-1-(propylideneaminoguanidine) Hydrochloride] | 6 | – | 73 | 501
2 | CCOc1ccc(C=NNC(=N)N)cc1OCC [Compound 2026, 1-(3,4-Diethoxybenzylideneamino)guanidine] | 9 | – | 58 | 7940
3 | COc1ccc(C=NNC(=N)N)c(C)c1C [Compound 2034, 1-(4-Methoxy-2,3-dimethylbenzylideneamino)guanidine Hydrochloride] | 26 | 3980 | 105 | 2510
4 | Cc1cc(C=NNC(=N)N)ccc1F [Compound 2012, 1-(4-Fluoro-3-methylbenzylideneamino)guanidine Hydrochloride] | 9 | – | 56 | 1580
5 | COc1ccc(C=NNC(=N)N)cc1Br [Compound 2014, 1-(3-Bromo-4-methoxybenzylideneamino)guanidine Hydrochloride] | 8 | – | 35 | 2000
6 | N=C(N)NN=Cc1ccc(F)c(C(F)(F)F)c1 [Compound 2068, 1-[4-Fluoro-3-(trifluoromethyl)benzylideneamino]guanidine Hydrochloride] | 13 | – | 61 | 1000
7 | CC(=NNC(=N)N)c1ccc2c(c1)OCCO2 [Compound 2040, 1-[1-(2,3-Dihydro-benzo[1,4]dioxin-6-yl)ethylideneamino]guanidine Hydrochloride] | 18 | – | 65 | 7940
8 | N=C(N)NN=Cc1ccc(O)c(Cl)c1 [Compound 2031, 1-(3-Chloro-4-hydroxybenzylideneamino)guanidine Hydrochloride] | 1 | – | 16 | –
9 | N=C(N)NN=Cc1cccc(C(F)(F)F)c1F [Compound 2065, 1-[2-Fluoro-3-(trifluoromethyl)benzylideneamino]guanidine Hydrochloride] | 9 | – | 45 | 3160
10 | N=C(N)NN=Cc1ccc(Br)cc1F [Compound 2018, 1-(4-Bromo-2-fluorobenzylideneamino)guanidine Hydrochloride] | 13 | – | 53 | 3160
11 | N=C(N)NN=Cc1ccc(F)c(Cl)c1 [Compound 2013, 1-(3-Chloro-4-fluorobenzylideneamino)guanidine Hydrochloride] | 4 | – | 34 | 794
12 | N=C(N)NN=Cc1ccc(Oc2ccccc2)cc1 [Compound 2020, 1-(4-Phenoxybenzylideneamino)guanidine Hydrochloride] | 24 | 1260 | 31 | 501
13 | N=C(N)NN=Cc1ccc(F)c(Br)c1 [Compound 2010, 1-(3-Bromo-4-fluorobenzylideneamino)guanidine Hydrochloride] | 7 | – | 53 | 1260
14 | NC(N)=NN=Cc1ccc(Cl)c(C(F)(F)F)c1 [Compound 2035, 1-[4-Chloro-3-(trifluoromethyl)benzylideneamino]guanidine Hydrochloride] | 45 | 3980 | 114 | –
15 | Cc1cc(C=NNC(=N)N)cc(C)c1O [Compound 2033, 1-(3,5-Dimethyl-4-hydroxybenzylideneamino)guanidine Hydrochloride] | 7 | – | 33 | 10000
16 | CCCCCCc1ccc(C(C)=NNC(=N)N)cc1 [Compound 3023, Hydrochloride] | 29 | 501 | 22 | 1260
17 | N=C(N)NN=Cc1ccc2c(c1)OCCCO2 [Compound 2038, 1-[3,4-Dihydro-2H-benzo[b][1,4]dioxepin-7-yl)methylideneamino]guanidine Hydrochloride] | 9 | – | 77 | 3980
18 | COc1cc(C=NNC(=N)N)cc(OC)c1 [Compound 2007, 1-(3,5-Dimethoxybenzylideneamino)guanidine Hydrochloride] | 5 | – | 29 | 3160

Continued, values first:

Row | Emax (NPFF1) [%] | EC50 (NPFF1) [nM] | Emax (NPFF2) [%] | EC50 (NPFF2) [nM] | SMILES
19 | 21 | 398 | 61 | 3160 | Cc1ccc(C=NNC(=N)N)c(C)c1 [Compound 2077, 1-[2,4-Dimethylbenzylideneamino]guanidine Hydrochloride]
20 | 60 | 1000 | 92 | 1000 | CCN(CC)c1ccc(C=NNC(=N)N)c(OC)c1 [Compound 3043, 1-(2-Methoxy-4-N,N-diethylaminobenzylideneamino)guanidine Hydrochloride]
21 | 39 | 794 | 59 | 3160 | CCN(CC)c1ccc(C=NNC(=N)N)c(O)c1 [Compound 3037, 1-(4-Diethylamino-2-hydroxybenzylideneamino)guanidine Hydrochloride]
22 | 48 | 1580 | 70 | 2000 | CN(CCC#N)c1ccc(C=NNC(=N)N)cc1 [Compound 3040, 1-{4-[Methyl-(2-cyanoethyl)amino]benzylideneamino}guanidine Hydrochloride]
23 | 15 | – | 49 | 10000 | COc1cccc(C=NNC(=N)N)c1OC [Compound 4004, 1-(2,3-Dimethoxybenzylideneamino)guanidine Hydrochloride]
24 | 24 | 1260 | 65 | 2510 | N=C(N)NN=Cc1ccc2ccccc2c1 [Compound 2075, 1-[Naphthalen-2-yl-methylideneamino]guanidine Hydrochloride]
25 | 32 | 10000 | 70 | 2510 | CC(=NNC(=N)N)c1ccc(C)c(C)c1 [Compound 3021, 1-[1-(3,4-Dimethylphenyl)ethylideneamino]guanidine Hydrochloride]
26 | 41 | 1000 | 99 | 398 | CC(=NNC(=N)N)c1ccc2c(c1)CCCC2 [Compound 3024, 1-[1-(5,6,7,8-Tetrahydronaphthalen-2-yl)ethylideneamino]guanidine Hydrochloride]
27 | 9 | – | 23 | 1260 | CC(=NNC(=N)N)c1cc(C(F)(F)F)cc(C(F)(F)F)c1 [Compound 3028, 1-{1-[3,5-Bis-(trifluoromethyl)phenyl]ethylideneamino}guanidine Hydrochloride]
28 | 17 | – | 80 | 6310 | CC(=NNC(=N)N)c1cccc(C)c1 [Compound 3017, 1-[1-(3-Methylphenyl)ethylideneamino]guanidine Hydrochloride]
29 | 5 | – | 63 | 1260 | CC(=NNC(=N)N)c1cccc(C(F)(F)F)c1 [Compound 3027, 1-{1-[3-(Trifluoromethyl)phenyl]ethylideneamino}guanidine Hydrochloride]
30 | 16 | – | 74 | 1580 | CC(=NNC(=N)N)c1ccc(Br)cc1 [Compound 3016, 1-[1-(4-Bromophenyl)ethylideneamino]guanidine Hydrochloride]
31 | 41 | 3980 | 115 | 1260 | CCc1ccc(C(C)=NNC(=N)N)cc1 [Compound 3020, 1-[1-(4-Ethylphenyl)ethylideneamino]guanidine Hydrochloride]
32 | 78 | 3980 | 53 | 2000 | CCCOc1ccc(C=NNC(=N)N)cc1 [Compound 4006, 1-(4-n-Propoxybenzylideneamino)guanidine Hydrochloride]
33 | 7 | – | 22 | 6310 | COc1ccc(C(C)=NNC(=N)N)c(O)c1 (mixture of isomers) [Compound 3030, 1-[1-(2-Hydroxy-4-methoxyphenyl)ethylideneamino]guanidine Hydrochloride]
34 | 47 | 3980 | 64 | 6310 | [H]/N=C(\N)NN=Cc1ccc(Cl)cc1 [Compound 4008, 1-(4-Chlorobenzylideneamino)guanidine Hydrochloride]
35 | 14 | – | 47 | 794 | COc1cccc(C=NNC(=N)N)c1OCc1ccccc1 [Compound 3006, 1-(2-Benzyloxy-3-methoxybenzylideneamino)guanidine Hydrochloride]
36 | 19 | 10000 | 77 | 2510 | COc1ccc(C(F)(F)F)cc1C=NNC(=N)N [Compound 2074, 1-[2-Methoxy-5-(trifluoromethyl)benzylideneamino]guanidine Hydrochloride]
